Laboratory results: patent publication US20030161854A1, “Synergistic formulations” (priority 2000, published 2003)

Tested on: 1st instar larvae of Lucilia cuprina
Assay: In-vitro investigation for possible potentiation between spinosad and ivermectin in sheep blowfly larvae (treated chromatography papers, fractions of LC90)
Format: in vivo
Details: 48 hours
Experimental: Forty to 50 newly hatched 1st instar larvae of Lucilia cuprina were washed with sheep serum onto chromatography papers treated with serial dilutions of ivermectin or spinosad as set out below. After 48 hours numbers of live and dead larvae were counted. The LC90 was calculated for spinosad and ivermectin. Larvae were exposed to that concentration of spinosad or ivermectin and ½, ¼ and ⅛ of the LC90. In addition larvae were exposed to 1:1, 1:4, 4:1, 9:1 and 1:9 combinations of each chemical with each concentration of chemical being a fraction of the LC90.
There were 19 treatment groups in the study (plus an untreated control group):
D 12-14: Four:one rates of Ivermectin:Spinosad—(0.8×, 0.2×), (0.4×, 0.1×) and (0.2×, 0.05×)
E 15-17: Four:one rates of Spinosad:lvermectin—(0.8×, 0.2×), (0.4×, 0.1×) and (0.2×, 0.05×)
Each group was tested on 4 replicates of 50 flies and the number of dead flies per replicate was recorded.
The method of generalized linear models for overdispersed binomial data using the logistic link function was used for an analysis of the 19 treatment groups. The analysis estimated dose-response lines (on the logarithmic dose scale) for each chemical or combination. The lines for each separate chemical were used to predict the efficacy (on the logistic scale) of the combinations assuming independent action, i.e. with no synergism. These were compared with the efficacy observed or predicted from the dose-response lines for the combinations.

| Substance | Mean efficacy (Dose-response) % (0.125x LC90) [%] | Mean efficacy (Dose-response) Logit (0.125x LC90) | Mean efficacy (Sample estimate) % (0.125x LC90) [%] | Mean efficacy (Sample estimate) Logit (0.125x LC90) | Mean efficacy (Dose-response) % (0.25x LC90) [%] | Mean efficacy (Dose-response) Logit (0.25x LC90) | Mean efficacy (Sample estimate) % (0.25x LC90) [%] | Mean efficacy (Sample estimate) Logit (0.25x LC90) | Mean efficacy (Dose-response) % (0.5x LC90) [%] | Mean efficacy (Dose-response) Logit (0.5x LC90) | Mean efficacy (Sample estimate) % (0.5x LC90) [%] | Mean efficacy (Sample estimate) Logit (0.5x LC90) | Mean efficacy (Dose-response) % (1.0x LC90) [%] | Mean efficacy (Dose-response) Logit (1.0x LC90) | Mean efficacy (Sample estimate) % (1.0x LC90) [%] | Mean efficacy (Sample estimate) Logit (1.0x LC90) |
| --- | --- | --- | --- | --- | --- | --- | --- | --- | --- | --- | --- | --- | --- | --- | --- | --- |
| ivermectin | 1.6 | −4.14 ± 0.48 | 3.0 | −3.48 ± 0.64 | 13.2 | −1.88 ± 0.26 | 11.0 | −2.09 ± 0.35 | 59.4 | 0.38 ± 0.18 | 59.5 | 0.38 ± 0.22 | 93.3 | 2.64 ± 0.34 | 94.0 | 2.75 ± 0.46 |
| spinosad | 9.8 | −2.21 ± 0.28 | 16.0 | −1.66 ± 0.30 | 30.7 | −0.81 ± 0.17 | 22.0 | −1.27 ± 0.27 | 64.1 | 0.58 ± 0.16 | 63.0 | 0.53 ± 0.23 | 87.9 | 1.98 ± 0.27 | 91.5 | 2.38 ± 0.39 |
